Laboratory results taken from article PMC10762068, “Selective blockade of Cav1.2 (α1C) versus Cav1.3 (α1D) L-type calcium channels by the black mamba toxin calciseptine” (Nature Communications, 2024).
Like-named read-outs stand apart in the source and are kept apart here. Positions of bridges follow the written chain, without caps; N, C: chain ends. No end group written: not given here.

Columns and labels:
[1] = test system: ICav1.2 in SAN myocytes from Cav1.3^−/− mice; test: ICaL, patch clamp, SAN myocytes from Cav1.3-/- mice; assay type: cell-based, mouse; settings: for degree of inhibition of ICav1.2 / percentage of ICaL block: step 0 mV, mean ± SEM; for degree of inhibition of ICav1.2: n=6/N=2; for percentage of ICaL block: n=7/N=2; for L-type Ca2+ current density: Cas 1 µM alone or + Nife 3 µM, n=8
Protocol: Hearts from Wild-Type and Cav1.3^−/− mice were removed under general anesthesia consisting of 0.01 mg/g xylazine (2% Rompun; Bayer AG) and 0.1 mg/g ketamine (Imalgène;Merial) and immersed in a pre-warmed (36 °C) Tyrode solution containing (mM): 140 NaCl, 5.4 KCl, 1 MgCl2, 1.8 CaCl2, 5.5 D-glucose, and 5 Hepes (adjusted to pH 7.4 with NaOH). […] SAN tissue was excised and transferred into a low-Ca^2+ solution containing (mM): 140 NaCl, 5.4 KCl, 0.5 MgCl2, 0.2 CaCl2, 1.2 KH2PO4, 50 taurine, 5.5 D-glucose, 1 mg/mL BSA, and 5 Hepes–NaOH (adjusted to pH 6.9 with NaOH) for 5 min. Then, enzymatic digestion was carried out for 20-25 min at 36 °C in the low-Ca^2+ solution containing LiberaseTH Research Grade (0.15 mg/mL; Roche, Mannheim, Germany) and elastase (0.5 mg/mL; Worthington, Lakewood, NJ, USA). Digestion was stopped by washing the SAN in a “Kraftbrühe” (KB) medium containing (mM) 100 K-glutamate, 10 K-aspartate, 25 KCl, 10 KH2PO4, 2 MgSO4, 20 taurine, 5 creatine, 0.5 EGTA, 20 D-glucose, 5 Hepes, and 1 mg/mL BSA (adjusted to pH 7.2 with KOH). Single SAN cells were then dissociated from the SAN tissue by manual agitation using a flame-forged Pasteur’s pipette. To recover the automaticity of the SAN cells, Ca^2+ was gradually reintroduced in the cell’s storage solution to a final concentration of 1.8 mM. SAN cells were then left to rest for 1 h before recordings.
For patch-clamp recordings of SAN myocytes, cells were harvested in custom-made chambers with glass bottoms for cell attachment. Cells were then super-fused with Tyrode’s solution warmed at 36 °C before recording. Action potentials and ionic currents were recorded using an Axon multi-clamp patch-clamp 700B amplifier. Voltage-gated L-type Ca^2+ currents (ICaL) were recorded using standard whole cell patch-clamp configuration. For recording ICaL, we used an extracellular recording solution contained (mM): 135 tetraethylammonium chloride (TEA-Cl), 10 4-aminopyridine (4-AP), 1 MgCl2, 0.03 tetrodotoxin (TTX), 1 g/L Glucose, 2 CaCl2, 10 Hepes, (adjusted to pH = 7.2 with TEAOH). […] Pacemaker activity was recorded by the perforated patch-clamp technique using escin (40 µg/ml). For recording cell automaticity glass pipettes were filled with the intracellular solution contained (mM): 80 K-Aspartate, 50 KCl, 1 MgCl2, 5 HEPES, 2 CaCl2, 5 EGTA, 3 ATP-Na+ salt; pH was adjusted to 7.2 with KOH. Escin was dissolved in sterile H2O and added to the intracellular solution right before each experiment.
(§1) In all experiments of cellular electrophysiology, we employed synthetized analog of Cas, commercially available at Latoxan (ID: L8109). The native peptide was purified from the venom of Dendroaspis polylepis purchased from Latoxan, as previoulsly described. The pure peptide was obtained after gel filtration, cation exchange and C18 reversed phase chromatography. Its measured molecular mass (7036.26 Da average) was in accordance with the mass calculated from sequence data (7036.22 Da).

[2] = target: T1, Cav1.2 (Homo sapiens, UniProt Q13936); test: cell-based; assay type: cell-based; settings: for L-type Ca2+ current density: mean ± SEM, n=11
T1 construct: expressed in transfected cells; host or cells: HEK-293T
Protocol: HEK-293T (RRID:CVCL_2737) were obtained from the European Collection of Authenticated Cell Cultures (ECACC 96121229). The identity of HEK-293T has been confirmed by STR profiling and the cells have been eradicated from mycoplasma at ECACC. We routinely tested the cells for the absence of the mycoplasma contamination. Cells were cultivated at 37 °C in DMEM supplemented with GlutaMax, 10% fetal bovine serum and 1% penicillin/streptomycin (Invitrogen, Fisher Scientific, France). Transfections were performed using jet-PEI (Ozyme, France) with a DNA mix containing either the plasmids that code for Cav1.2-GFP, β2a and α2δ (0.8 µg of each) or either the plasmids that code for Cav1.3 (with and without exon 42a), or Cav2.1, or either Cav2.2 combined with β2a and α2δ (0.8 µg of each supplemented with 0.025 µg of a plasmid coding for GFP). For Cav3.1 expression β2a and α2δ subunits were omitted. Plasmids coding for β2a, α2δ and Cav1.3 were created as described previously. Plasmid coding for Cav1.2-GFP was obtained from Dr. Catalucci[60]. After transfection cells were placed at 30 °C for 2–3 days and dissociated with Versene (Invitrogen, Fisher Scientific, France) and plated at a density of ~35 × 10^3 cells per 35 mm Petri dish for electrophysiological recordings, which were performed the following day.
Macroscopic currents in HEK-293T cells were recorded at room temperature using an Axopatch 200B or Multiclamp 700B patchclamp amplifier (Molecular Devices, Sunnyvale CA). […] The extracellular solution contained (in mM): 135 NaCl, 20 TEACl, 5 BaCl2, 1 MgCl2, and 10 HEPES (pH adjusted to 7.25 with KOH, ~330 mOsm).
as §1, with “chromatography.” for “chromatography. Its measured molecular mass (7036.26 Da average) was in accordance with the mass calculated from sequence data (7036.22 Da).”

[3] = HEK-293T, read-out: inhibition of ICav1.2

T1 sequence (Q13936 whole entry): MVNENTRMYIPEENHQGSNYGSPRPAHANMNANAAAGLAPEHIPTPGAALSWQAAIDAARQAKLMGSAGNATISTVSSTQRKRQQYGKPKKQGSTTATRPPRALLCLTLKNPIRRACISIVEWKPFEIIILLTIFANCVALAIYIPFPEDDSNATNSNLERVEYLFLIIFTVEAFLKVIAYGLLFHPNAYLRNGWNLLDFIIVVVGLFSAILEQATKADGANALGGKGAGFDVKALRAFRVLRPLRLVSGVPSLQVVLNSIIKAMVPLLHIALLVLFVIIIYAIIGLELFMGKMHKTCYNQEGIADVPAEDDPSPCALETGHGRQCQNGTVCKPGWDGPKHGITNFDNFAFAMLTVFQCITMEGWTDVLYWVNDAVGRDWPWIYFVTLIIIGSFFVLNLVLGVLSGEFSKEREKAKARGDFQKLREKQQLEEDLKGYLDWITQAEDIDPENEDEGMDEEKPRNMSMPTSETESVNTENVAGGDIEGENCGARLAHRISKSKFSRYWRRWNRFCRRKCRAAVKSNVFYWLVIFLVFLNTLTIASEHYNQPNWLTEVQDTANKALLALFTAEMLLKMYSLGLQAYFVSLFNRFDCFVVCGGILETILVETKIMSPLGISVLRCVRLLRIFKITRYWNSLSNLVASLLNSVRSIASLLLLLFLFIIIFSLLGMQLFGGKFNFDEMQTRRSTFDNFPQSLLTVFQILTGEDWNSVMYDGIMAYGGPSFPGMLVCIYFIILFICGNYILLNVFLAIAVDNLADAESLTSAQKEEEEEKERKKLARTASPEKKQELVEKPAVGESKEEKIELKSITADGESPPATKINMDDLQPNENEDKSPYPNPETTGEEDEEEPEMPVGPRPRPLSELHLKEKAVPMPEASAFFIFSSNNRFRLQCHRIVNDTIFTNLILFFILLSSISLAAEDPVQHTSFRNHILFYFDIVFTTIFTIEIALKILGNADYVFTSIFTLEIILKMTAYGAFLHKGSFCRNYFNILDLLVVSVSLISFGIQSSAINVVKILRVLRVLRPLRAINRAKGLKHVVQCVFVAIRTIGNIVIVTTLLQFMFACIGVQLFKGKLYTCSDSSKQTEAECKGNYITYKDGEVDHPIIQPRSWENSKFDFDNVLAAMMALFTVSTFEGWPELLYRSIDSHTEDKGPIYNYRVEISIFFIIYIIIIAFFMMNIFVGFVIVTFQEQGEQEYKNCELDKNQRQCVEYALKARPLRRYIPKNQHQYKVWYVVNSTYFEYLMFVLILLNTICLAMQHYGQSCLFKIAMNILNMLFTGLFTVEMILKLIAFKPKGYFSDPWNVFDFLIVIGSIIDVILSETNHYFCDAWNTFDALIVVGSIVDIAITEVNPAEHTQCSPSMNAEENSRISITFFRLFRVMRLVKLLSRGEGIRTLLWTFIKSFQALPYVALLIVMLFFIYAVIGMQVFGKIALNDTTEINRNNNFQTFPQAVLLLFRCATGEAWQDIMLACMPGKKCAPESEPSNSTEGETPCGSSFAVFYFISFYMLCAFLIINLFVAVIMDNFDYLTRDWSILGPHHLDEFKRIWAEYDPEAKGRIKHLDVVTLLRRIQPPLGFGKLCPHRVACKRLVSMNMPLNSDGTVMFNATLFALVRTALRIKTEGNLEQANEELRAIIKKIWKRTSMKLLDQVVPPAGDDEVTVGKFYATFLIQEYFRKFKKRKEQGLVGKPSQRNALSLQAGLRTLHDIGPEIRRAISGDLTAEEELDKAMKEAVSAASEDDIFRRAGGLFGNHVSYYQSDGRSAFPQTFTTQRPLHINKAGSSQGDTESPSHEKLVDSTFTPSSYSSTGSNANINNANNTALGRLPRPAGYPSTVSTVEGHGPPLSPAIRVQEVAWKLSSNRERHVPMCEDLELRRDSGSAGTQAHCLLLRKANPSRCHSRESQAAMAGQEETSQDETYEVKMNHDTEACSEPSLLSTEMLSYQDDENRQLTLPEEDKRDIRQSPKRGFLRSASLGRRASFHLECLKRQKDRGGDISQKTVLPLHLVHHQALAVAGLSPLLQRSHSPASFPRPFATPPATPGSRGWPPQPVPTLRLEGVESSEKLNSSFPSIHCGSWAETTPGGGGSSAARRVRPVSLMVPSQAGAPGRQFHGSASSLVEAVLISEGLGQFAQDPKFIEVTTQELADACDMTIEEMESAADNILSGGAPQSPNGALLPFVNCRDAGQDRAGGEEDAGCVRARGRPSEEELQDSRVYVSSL
T1 sequence (Q08289 whole entry partner): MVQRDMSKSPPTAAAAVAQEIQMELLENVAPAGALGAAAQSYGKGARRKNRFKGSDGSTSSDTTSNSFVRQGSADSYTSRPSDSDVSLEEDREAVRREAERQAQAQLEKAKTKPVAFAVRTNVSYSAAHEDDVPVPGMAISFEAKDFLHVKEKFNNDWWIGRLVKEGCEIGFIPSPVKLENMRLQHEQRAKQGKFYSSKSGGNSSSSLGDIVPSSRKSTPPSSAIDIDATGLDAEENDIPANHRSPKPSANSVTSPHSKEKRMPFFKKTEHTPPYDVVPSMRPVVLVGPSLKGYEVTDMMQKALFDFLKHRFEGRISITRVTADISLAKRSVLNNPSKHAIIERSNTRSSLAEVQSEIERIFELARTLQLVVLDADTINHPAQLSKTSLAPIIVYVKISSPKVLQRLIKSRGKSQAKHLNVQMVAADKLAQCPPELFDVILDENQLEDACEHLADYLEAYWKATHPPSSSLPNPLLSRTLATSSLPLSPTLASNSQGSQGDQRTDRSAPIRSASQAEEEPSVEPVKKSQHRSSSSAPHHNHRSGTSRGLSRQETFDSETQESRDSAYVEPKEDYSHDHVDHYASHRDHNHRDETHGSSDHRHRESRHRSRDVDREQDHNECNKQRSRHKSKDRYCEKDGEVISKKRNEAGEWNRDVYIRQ
T1 sequence (P54289 25-956 partner limits assumed): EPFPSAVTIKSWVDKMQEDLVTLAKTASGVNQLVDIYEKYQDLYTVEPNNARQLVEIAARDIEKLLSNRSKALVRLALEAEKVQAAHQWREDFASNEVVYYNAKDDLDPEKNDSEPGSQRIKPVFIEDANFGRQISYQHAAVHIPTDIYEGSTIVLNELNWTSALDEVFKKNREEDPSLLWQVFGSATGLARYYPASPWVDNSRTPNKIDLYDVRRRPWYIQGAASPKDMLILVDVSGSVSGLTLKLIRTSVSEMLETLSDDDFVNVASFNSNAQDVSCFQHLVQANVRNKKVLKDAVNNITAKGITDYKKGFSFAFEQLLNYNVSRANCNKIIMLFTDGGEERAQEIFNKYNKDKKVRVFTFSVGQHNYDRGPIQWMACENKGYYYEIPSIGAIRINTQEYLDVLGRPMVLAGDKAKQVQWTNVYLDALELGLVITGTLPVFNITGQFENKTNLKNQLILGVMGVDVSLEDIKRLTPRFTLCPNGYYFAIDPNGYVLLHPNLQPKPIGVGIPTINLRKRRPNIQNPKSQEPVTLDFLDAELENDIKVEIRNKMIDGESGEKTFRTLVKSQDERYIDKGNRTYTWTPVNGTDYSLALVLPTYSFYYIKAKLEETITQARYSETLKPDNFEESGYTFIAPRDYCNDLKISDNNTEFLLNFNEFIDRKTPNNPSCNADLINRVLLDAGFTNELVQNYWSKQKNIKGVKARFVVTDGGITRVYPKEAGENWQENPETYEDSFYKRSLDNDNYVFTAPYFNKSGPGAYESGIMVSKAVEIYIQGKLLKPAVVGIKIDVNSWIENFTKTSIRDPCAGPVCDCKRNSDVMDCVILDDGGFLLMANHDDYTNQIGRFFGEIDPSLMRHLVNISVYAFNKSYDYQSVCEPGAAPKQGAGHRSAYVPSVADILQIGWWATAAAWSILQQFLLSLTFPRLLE
T1 sequence (P54289 957-1103 partner limits assumed): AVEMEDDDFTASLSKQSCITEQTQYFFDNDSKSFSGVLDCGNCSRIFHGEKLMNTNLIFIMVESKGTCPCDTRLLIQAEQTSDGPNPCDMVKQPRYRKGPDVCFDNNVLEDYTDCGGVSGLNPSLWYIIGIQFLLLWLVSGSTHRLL

Question: With “RICYIHKASLPRATKTCVENTCYKMFIRTQREYISERGCGCPTAMWPYQTECCKGDRCNK (disulfide 3-22, 17-39, 41-52, 53-58 (inferred)) [Cas, calciseptine]” as the sequence, how does the “degree of inhibition of ICav1.2” value ([1]; Cas 300 nM, 0.2 Hz, holding −60 mV) read?
Answer: The value was 62 ± 6%.

Question: And the “degree of inhibition of ICav1.2” value ([1]; Cas 300 nM, 1 Hz, holding −60 mV)?
Answer: The value was 63 ± 6%.

Question: What about the “degree of inhibition of ICav1.2” value ([1]; Cas 300 nM, 5 Hz, holding −60 mV) of the same sequence?
Answer: Its value is 58 ± 8%.

Question: And the “voltage- or use-dependence of ICav1.2 inhibition” value ([1]; Cas 300 nM, holding −40 / −60 mV, 0.2, 1, 5 Hz)?
Answer: Its value is “not voltage- or use-dependent”.

Question: What about the “percentage of ICaL block” value ([1]; Cas 300 nM, holding −40 mV) of the same sequence?
Answer: Its value is 68 ± 3%.

Question: What about the “percentage of ICaL block” value ([1]; Cas 300 nM, holding −60 mV) of the same sequence?
Answer: Its value is 67 ± 4%.

Question: What about the “L-type Ca2+ current density” value ([1]; 0 mV, Ctrl -4.14± 0.56) of the same sequence?
Answer: The value was -0.45± 0.14 pA/pF.

Question: What about the “L-type Ca2+ current density” value ([1]; +10 mV, Ctrl -4.69± 0.57) of the same sequence?
Answer: The value was -0.17± 0.14 pA/pF.

Question: What about the “L-type Ca2+ current density” value ([1]; +20 mV, Ctrl -3.93± 0.56) of the same sequence?
Answer: The value was -0.13± 0.21 pA/pF.

Question: What about the “L-type Ca2+ current density” value ([1]; +40 mV, Ctrl -1.15± 0.37) of the same sequence?
Answer: The value was 0.37± 0.29 pA/pF.

Question: And the “L-type Ca2+ current density” value ([1]; -10 mV, Ctrl -2.49± 0.39)?
Answer: Its value is -0.17± 0.07 pA/pF.

Question: And the “L-type Ca2+ current density” value ([1]; -20 mV, Ctrl -1.16± 0.20)?
Answer: The value was -0.08± 0.03 pA/pF.

Question: And the “L-type Ca2+ current density” value ([1]; -25 mV, Ctrl -0.97± 0.21)?
Answer: Its value is -0.25± 0.13 pA/pF.

Question: And the “block of ICaL” value ([1]; Cas 1 µM, holding −55 mV, n=8/N=2)?
Answer: The value was “totally blocked ICaL”.

Question: What about the “residual ICaL after Cas” value ([1]; Cav1.3^−/− SAN myocytes after Cas perfusion) of the same sequence?
Answer: The value was “No residual ICaL was recorded”.

Question: And the “effect on outward-going ICav1.2 at +150 mV” value ([2]; Cas 300 nM, n=6/N=3, holding -60 mV)?
Answer: Its value is “almost no effect”.

Question: What about the “L-type Ca2+ current density” value ([2]; Cas 300 nM, 0 mV, Ctrl -9.25± 2,32) of the same sequence?
Answer: Its value is -3.32± 0.87 pA/pF.

Question: And the “L-type Ca2+ current density” value ([2]; Cas 300 nM, +10 mV, Ctrl -9.90± 1,94)?
Answer: Its value is -3.92± 0.94 pA/pF.

Question: What about the “L-type Ca2+ current density” value ([2]; Cas 300 nM, +20 mV, Ctrl -8.05± 1.41) of the same sequence?
Answer: Its value is -3.08± 0.77 pA/pF.

Question: And the “L-type Ca2+ current density” value ([2]; Cas 300 nM, +30 mV, Ctrl -4.66± 0.82)?
Answer: The value was -1.53± 0.51 pA/pF.

Question: And the “L-type Ca2+ current density” value ([2]; Cas 300 nM, -10 mV, Ctrl -5.72± 1.83)?
Answer: The value was -1.76± 0.46 pA/pF.

Question: And the “L-type Ca2+ current density” value ([2]; Cas 300 nM, -20 mV, Ctrl -1.41± 0.28)?
Answer: The value was -0.70± 0.17 pA/pF.

Question: What about the inhibition at 0.1 µM [2, 3] of the same sequence?
Answer: Its inhibition at 0.1 µM is 37%.

Question: What about the inhibition at 0.3 µM [2, 3] of the same sequence?
Answer: The inhibition at 0.3 µM was 70%.

Question: And the inhibition at 1 µM [2, 3]?
Answer: The inhibition at 1 µM was 80%.

Question: And the inhibition at 0.3 µM ([2]; HEK-293T, read-out: inhibition of ICav1.2 (I-V relationship))?
Answer: Its inhibition at 0.3 µM is ~60%.

Question: And the V0.5 for activation ([2]; during Cas application, control −3 ± 2 mV, n = 8, Wilcoxon p = 0.0078)?
Answer: The V0.5 for activation was 3 ± 2 mV.
